{"source": "PubChem BioAssay (NCI)", "assay_in_all_cases": "NCI-60 cell line screen, 48 h", "key": {"NCI-H23 lung": {"tested_on": "NCI-H23 lung"}, "NCI-H460 lung": {"tested_on": "NCI-H460 lung"}, "NCI/ADR-RES ovarian": {"tested_on": "NCI/ADR-RES ovarian"}, "OVCAR-3 ovarian": {"tested_on": "OVCAR-3 ovarian"}, "OVCAR-8 ovarian": {"tested_on": "OVCAR-8 ovarian"}, "PC-3 prostate": {"tested_on": "PC-3 prostate"}, "RPMI-8226 leukemia": {"tested_on": "RPMI-8226 leukemia"}, "RXF 393 renal": {"tested_on": "RXF 393 renal"}, "SF-268 CNS": {"tested_on": "SF-268 CNS"}, "SF-295 CNS": {"tested_on": "SF-295 CNS"}, "SF-539 CNS": {"tested_on": "SF-539 CNS"}, "SK-MEL-2 melanoma": {"tested_on": "SK-MEL-2 melanoma"}, "SK-MEL-28 melanoma": {"tested_on": "SK-MEL-28 melanoma"}, "SK-MEL-5 melanoma": {"tested_on": "SK-MEL-5 melanoma"}, "SK-OV-3 ovarian": {"tested_on": "SK-OV-3 ovarian"}, "SNB-19 CNS": {"tested_on": "SNB-19 CNS"}, "SNB-75 CNS": {"tested_on": "SNB-75 CNS"}, "SR leukemia": {"tested_on": "SR leukemia"}, "SW-620 colon": {"tested_on": "SW-620 colon"}, "T-47D breast": {"tested_on": "T-47D breast"}, "TK-10 renal": {"tested_on": "TK-10 renal"}, "U251 CNS": {"tested_on": "U251 CNS"}, "UACC-257 melanoma": {"tested_on": "UACC-257 melanoma"}, "UACC-62 melanoma": {"tested_on": "UACC-62 melanoma"}, "UO-31 renal": {"tested_on": "UO-31 renal"}}, "note": "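All cell lines were grown in 96-well plates and treated with compound for 48 hours. GI50 marks 50% less growth. The concentration for full growth arrest is given as TGI.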", "data": [{"smiles": "CC[N+](CC)=c1cc2oc3cc(N(C)C)ccc3nc-2cc1C", "values": [{"measurement": "GI50", "setting": "NCI-H23 lung", "result": 0.482, "unit": "µM"}, {"measurement": "TGI", "setting": "NCI-H23 lung", "result": 6.79, "unit": "µM"}, {"measurement": "GI50", "setting": "NCI-H460 lung", "result": 1.86, "unit": "µM"}, {"measurement": "TGI", "setting": "NCI-H460 lung", "result": 73.6, "unit": "µM"}, {"measurement": "GI50", "setting": "NCI/ADR-RES ovarian", "result": 4.23, "unit": "µM"}, {"measurement": "TGI", "setting": "NCI/ADR-RES ovarian", "result": "> 100", "unit": "µM"}, {"measurement": "GI50", "setting": "OVCAR-3 ovarian", "result": 0.296, "unit": "µM"}, {"measurement": "TGI", "setting": "OVCAR-3 ovarian", "result": 1.02, "unit": "µM"}, {"measurement": "GI50", "setting": "OVCAR-8 ovarian", "result": 2.11, "unit": "µM"}, {"measurement": "TGI", "setting": "OVCAR-8 ovarian", "result": 9.93, "unit": "µM"}, {"measurement": "GI50", "setting": "PC-3 prostate", "result": 0.454, "unit": "µM"}, {"measurement": "TGI", "setting": "PC-3 prostate", "result": "> 100", "unit": "µM"}, {"measurement": "GI50", "setting": "RPMI-8226 leukemia", "result": 0.628, "unit": "µM"}, {"measurement": "TGI", "setting": "RPMI-8226 leukemia", "result": 10.1, "unit": "µM"}, {"measurement": "GI50", "setting": "RXF 393 renal", "result": 15.2, "unit": "µM"}, {"measurement": "TGI", "setting": "RXF 393 renal", "result": 90.1, "unit": "µM"}, {"measurement": "GI50", "setting": "SF-268 CNS", "result": 1.18, "unit": "µM"}, {"measurement": "TGI", "setting": "SF-268 CNS", "result": 3.48, "unit": "µM"}, {"measurement": "GI50", "setting": "SF-295 CNS", "result": 1.93, "unit": "µM"}, {"measurement": "TGI", "setting": "SF-295 CNS", "result": 16.8, "unit": "µM"}, {"measurement": "GI50", "setting": "SF-539 CNS", "result": 0.39, "unit": "µM"}, {"measurement": "TGI", "setting": "SF-539 CNS", "result": 13.1, "unit": "µM"}, {"measurement": "GI50", "setting": "SK-MEL-2 melanoma", "result": 0.519, "unit": "µM"}, {"measurement": "TGI", "setting": "SK-MEL-2 melanoma", "result": 4.82, "unit": "µM"}, {"measurement": "GI50", "setting": "SK-MEL-28 melanoma", "result": 8.4, "unit": "µM"}, {"measurement": "TGI", "setting": "SK-MEL-28 melanoma", "result": 42.1, "unit": "µM"}, {"measurement": "GI50", "setting": "SK-MEL-5 melanoma", "result": 1.04, "unit": "µM"}, {"measurement": "TGI", "setting": "SK-MEL-5 melanoma", "result": 5.69, "unit": "µM"}, {"measurement": "GI50", "setting": "SK-OV-3 ovarian", "result": 4.45, "unit": "µM"}, {"measurement": "TGI", "setting": "SK-OV-3 ovarian", "result": 98.7, "unit": "µM"}, {"measurement": "GI50", "setting": "SNB-19 CNS", "result": 2.9, "unit": "µM"}, {"measurement": "TGI", "setting": "SNB-19 CNS", "result": "> 100", "unit": "µM"}, {"measurement": "GI50", "setting": "SNB-75 CNS", "result": 2.59, "unit": "µM"}, {"measurement": "TGI", "setting": "SNB-75 CNS", "result": 11.1, "unit": "µM"}, {"measurement": "GI50", "setting": "SR leukemia", "result": 2.74, "unit": "µM"}, {"measurement": "TGI", "setting": "SR leukemia", "result": 75, "unit": "µM"}, {"measurement": "GI50", "setting": "SW-620 colon", "result": 0.791, "unit": "µM"}, {"measurement": "TGI", "setting": "SW-620 colon", "result": 23, "unit": "µM"}, {"measurement": "GI50", "setting": "T-47D breast", "result": 0.563, "unit": "µM"}, {"measurement": "TGI", "setting": "T-47D breast", "result": "> 100", "unit": "µM"}, {"measurement": "GI50", "setting": "TK-10 renal", "result": 1.94, "unit": "µM"}, {"measurement": "TGI", "setting": "TK-10 renal", "result": 8.38, "unit": "µM"}, {"measurement": "GI50", "setting": "U251 CNS", "result": 0.538, "unit": "µM"}, {"measurement": "TGI", "setting": "U251 CNS", "result": 6.06, "unit": "µM"}, {"measurement": "GI50", "setting": "UACC-257 melanoma", "result": 0.306, "unit": "µM"}, {"measurement": "TGI", "setting": "UACC-257 melanoma", "result": 1.56, "unit": "µM"}, {"measurement": "GI50", "setting": "UACC-62 melanoma", "result": 3.24, "unit": "µM"}, {"measurement": "TGI", "setting": "UACC-62 melanoma", "result": 31.1, "unit": "µM"}, {"measurement": "GI50", "setting": "UO-31 renal", "result": 3.76, "unit": "µM"}, {"measurement": "TGI", "setting": "UO-31 renal", "result": 41.9, "unit": "µM"}]}]}
